# Laboratory results: US8785482B2, “Cyclohexene benzotriazole derivatives” (Merck Sharp & Dohme Corp., priority 2011, dated 2014)
# Biological target: T1, recombinant human mGluR2 (Homo sapiens, UniProt Q14416)
# T1 construct: expressed in transfected cells
# Assay: FLIPR Ca2+ mobilization assay, potentiation of glutamate response
# Assay type: cell-based
# Settings: CHO dhfr- cells expressing human mGluR2 and Gα16, EC20 glutamate (900 nM)
# Experimental: Potencies are determined as follows. The compounds of the present invention may be tested in a fluorescence laser imaging plate reader (FLIPR) based assay. This assay is a common functional assay to monitor Ca^2+ mobilization in whole cells expressing recombinant receptor coupled with a promiscuous G-protein. CHO dhfr-cells stably expressing recombinant human mGluR2 and Gα16 loaded with Fluo-4 AM (Invitrogen, Carlsbad Calif.) are treated with varying concentrations of compounds and the Ca^2+ response is monitored on a FLIPR384 (Molecular Devices, Sunnydale Calif.) for agonist activity. The potentiation response is monitored after a subsequent addition of an EC20 concentration of glutamate (900 nM). The maximum calcium response at each concentration of compound for agonism or potentiation are plotted as dose responses curves fitted with a four parameters logistic equation giving EC50 and Hill coefficient using the iterative non linear curve fitting software program.
# Such results are indicative of the intrinsic activity of the compounds in use as potentiators of mGluR2 receptor activity.
# T1 sequence (Q14416 19-872): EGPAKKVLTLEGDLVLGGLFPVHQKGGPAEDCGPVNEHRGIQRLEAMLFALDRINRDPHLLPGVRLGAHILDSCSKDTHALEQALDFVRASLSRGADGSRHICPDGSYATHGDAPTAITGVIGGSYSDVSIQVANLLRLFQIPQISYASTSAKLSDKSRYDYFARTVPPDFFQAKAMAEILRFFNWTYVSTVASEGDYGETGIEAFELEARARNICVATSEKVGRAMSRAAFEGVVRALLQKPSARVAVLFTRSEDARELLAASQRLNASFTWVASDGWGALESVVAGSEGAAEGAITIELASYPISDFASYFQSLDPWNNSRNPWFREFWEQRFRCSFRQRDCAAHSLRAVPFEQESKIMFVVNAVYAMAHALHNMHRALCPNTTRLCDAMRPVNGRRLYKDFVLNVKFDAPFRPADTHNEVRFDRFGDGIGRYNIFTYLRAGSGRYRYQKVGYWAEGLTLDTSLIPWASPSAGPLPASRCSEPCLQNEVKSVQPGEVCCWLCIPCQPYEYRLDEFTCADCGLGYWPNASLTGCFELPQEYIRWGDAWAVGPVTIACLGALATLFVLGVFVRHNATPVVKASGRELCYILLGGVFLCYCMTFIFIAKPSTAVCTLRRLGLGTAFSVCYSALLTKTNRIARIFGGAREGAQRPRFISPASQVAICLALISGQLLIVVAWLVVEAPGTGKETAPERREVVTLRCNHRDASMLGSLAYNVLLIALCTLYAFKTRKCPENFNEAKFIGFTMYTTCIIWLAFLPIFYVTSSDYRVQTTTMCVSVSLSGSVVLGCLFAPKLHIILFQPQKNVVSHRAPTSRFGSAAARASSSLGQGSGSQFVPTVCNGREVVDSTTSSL
row,EC50,SMILES
1,0.0092 µM,"CN1C(=O)CN(CC2CC=C(c3ccc4c(nnn4CC4CC4)c3Br)CC2)C1=O (centres unmarked) [Example 11, 1-({4-[4-Bromo-1-(cyclopropylmethyl)-1H-benzotriazol-5-yl]cyclohex-3-en-1-yl}methyl)-3-methylimidazolidine-2,4-dione]"
2,0.031 µM,"COC(=O)C1CC=C(c2ccc3c(nnn3CC3CC3)c2C(F)(F)F)CC1 (centres unmarked) [Example 7, Methyl 4-[1-(cyclopropylmethyl)-4-(trifluoromethyl)-1H-benzotriazol-5-yl]cyclohex-3-ene-1-carboxylate]"
3,1.56 µM,"CN1CC(c2ccc3c(nnn3CC(C)(C)C)c2Br)=CCC1CO (centres unmarked) [Example 9, {5-[4-Bromo-1-(2,2-dimethylpropyl)-1H-benzotriazol-5-yl]-1-methyl-1,2,3,6-tetrahydropyridin-2-yl}methanol]"
4,0.947 µM,"Clc1c(C2=CCCCC2)ccc2c1nnn2CC1CC1 [Example 4, 4-chloro-5-cyclohex-1-en-1-yl-1-(cyclopropylmethyl)-1H-benzotriazole]"
5,0.373 µM,"COC(=O)C1CC=C(c2ccc3c(nnn3CC3CC3)c2Cl)CC1 (centres unmarked) [Example 1, Methyl 4-[4-chloro-1-(cyclopropylmethyl)-1H-benzotriazol-5-yl]cyclohex-3-ene-1-carboxylate]"
6,0.408 µM,"OC1CC=C(c2ccc3c(nnn3CC3CC3)c2Cl)CC1 (centres unmarked) [Example 5, 4-[4-chloro-1-(cyclopropylmethyl)-1H-benzotriazol-5-yl]cyclohex-3-en-1-ol]"
7,0.017 µM,"CN1C(=O)CN(CC2CC=C(c3ccc4c(nnn4CC4CC4)c3Cl)CC2)C1=O (centres unmarked) [Example 3, 1-({4-[4-Chloro-1-(cyclopropylmethyl)-1H-benzotriazol-5-yl]cyclohex-3-en-1-yl}methyl)-3-methylimidazolidine-2,4-dione]"
8,0.052 µM,"OCC1CC=C(c2ccc3c(nnn3CC3CC3)c2Br)CC1 (centres unmarked) [Example 10, {4-[4-Bromo-1-(cyclopropylmethyl)-1H-benzotriazol-5-yl]cyclohex-3-en-1-yl}methanol]"
9,0.015 µM,"CN1C(=O)CN(CC2CC=C(c3ccc4c(nnn4CC4CC4)c3C(F)(F)F)CC2)C1=O (centres unmarked) [Example 8, 1-({4-[1-(Cyclopropylmethyl)-4-(trifluoromethyl)-1H-benzotriazol-5-yl]cyclohex-3-en-1-yl}methyl)-3-methylimidazolidine-2,4-dione]"
10,0.077 µM,"OCC1CC=C(c2ccc3c(nnn3CC3CC3)c2Cl)CC1 (centres unmarked) [Example 2, {4-[4-Chloro-1-(cyclopropylmethyl)-1H-benzotriazol-5-yl]cyclohex-3-en-1-yl}methanol]"
11,0.701 µM,"N#CC1CC=C(c2ccc3c(nnn3CC3CC3)c2Cl)CC1 (centres unmarked) [Example 6, 4-[4-chloro-1-(cyclopropylmethyl)-1H-benzotriazol-5-yl]cyclohex-3-ene-1-carbonitrile]"
